# Where “and” joins values, the source holds several entries; their conditions need not be identical. Equal values may be shown once.
# Key:
# P388 = test: Antiproliferative activity against mouse P388 cells assessed as cell growth inhibition; assay type: functional, cell-based
# HL-60 = test: Antiproliferative activity against human HL-60 cells assessed as cell growth inhibition; assay type: functional, cell-based
# RAW264.7 [1] = test: Inhibition of LPS-induced NO production in mouse RAW264.7 cells; assay type: functional, cell-based
# RPMI-7951 = test: Antiproliferative activity against human RPMI-7951 cells assessed as cell growth inhibition; assay type: functional; conditions: read-out: ED50 (the source's name)
# U-251 = test: Antiproliferative activity against human U-251MG cells assessed as cell growth inhibition; assay type: functional; conditions: read-out: ED50 (the source's name)
# KB = test: Antiproliferative activity against human KB cells assessed as cell growth inhibition; assay type: functional, cell-based
# [2] = system: Peritoneal macrophage cell; test: Inhibition of superoxide anion radical release in guinea pig peritoneal macrophages; assay type: functional, cell-based; conditions: Cavia porcellus
# [3] = target: T1, Polyunsaturated fatty acid 5-lipoxygenase (Homo sapiens) (UniProt P09917); test: Inhibition of ALOX5 (unknown origin) at 0.000001 M relative to control; conditions: dose 1 µM
# T1 sequence (whole entry): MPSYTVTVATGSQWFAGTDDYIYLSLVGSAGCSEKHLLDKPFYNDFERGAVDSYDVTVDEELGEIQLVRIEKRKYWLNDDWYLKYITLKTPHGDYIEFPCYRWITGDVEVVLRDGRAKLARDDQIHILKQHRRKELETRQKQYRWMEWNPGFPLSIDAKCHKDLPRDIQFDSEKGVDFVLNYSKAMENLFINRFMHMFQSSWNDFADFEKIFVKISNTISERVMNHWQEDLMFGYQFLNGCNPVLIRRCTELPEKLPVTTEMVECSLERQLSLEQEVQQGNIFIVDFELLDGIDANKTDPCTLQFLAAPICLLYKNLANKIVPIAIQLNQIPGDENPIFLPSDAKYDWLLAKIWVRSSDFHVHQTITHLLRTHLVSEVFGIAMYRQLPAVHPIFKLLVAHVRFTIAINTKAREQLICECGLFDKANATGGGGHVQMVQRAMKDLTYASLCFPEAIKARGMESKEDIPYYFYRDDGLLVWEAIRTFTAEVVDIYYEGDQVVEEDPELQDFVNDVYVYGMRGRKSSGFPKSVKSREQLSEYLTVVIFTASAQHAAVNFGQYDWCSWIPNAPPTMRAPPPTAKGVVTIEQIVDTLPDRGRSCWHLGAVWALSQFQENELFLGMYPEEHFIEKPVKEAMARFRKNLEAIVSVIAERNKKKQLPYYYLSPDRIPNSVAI
# RAW264.7 [4] = test: Inhibition of LPS-induced NO production in mouse RAW264.7 cells incubated for 24 hrs by Griess reagent based assay; assay type: functional, cell-based; conditions: RAW264.7, 24 h
# Cyclooxygenase = Cyclooxygenase (Homo sapiens, UniProt P35354+P23219); test: Inhibition of COX (unknown origin); assay type: protein assay
# Staphylococcus aureus = test: Antibacterial activity against Staphylococcus aureus assessed as inhibition of bacterial growth by agar diffusion method; assay type: functional
# DNA polymerase beta = DNA polymerase beta (Homo sapiens, UniProt P06746); test: Inhibition of DNA polymerase beta (unknown origin)
structure (smiles),measurement,setting,value
C=C1C(=O)C[C@H]2[C@H]3[C@@H]1[C@]2(C)CCCC3(C)C,IC50,P388,1 µg/mL
C=C1C(=O)[C@@]23CC[C@@H]4C(C)(C)CCC[C@@]4(C)[C@@H]2[C@@H](O)C[C@@H]1C3,IC50,HL-60,0.49 µM
same,GI50,P388,0.48 µg/mL and 1.6 µM
CC1(C)[C@H]2CC[C@]3(C)Oc4cc(O)cc(CCc5ccccc5)c4[C@H]1[C@@H]23,IC50,RAW264.7 [1],4.5 µM
C=C1C(=O)[C@@H]2C3=C(CC[C@@H]4C(C)(C)CC[C@H](O)[C@@]34C)C[C@H]1[C@@H]2O,IC50,HL-60,0.78 µM
O=C(/C=C\c1ccccc1)c1cc(O)cc2c1CC(c1ccccc1)O2 (stereo unspecified) [PALLIDISETIN B],EC50,RPMI-7951,1 µg/mL
same,EC50,U-251,2 µg/mL
O=C(/C=C/c1ccccc1)c1cc(O)cc2c1CC(c1ccccc1)O2 (stereo unspecified) [PALLIDISETIN A],EC50,RPMI-7951,1 µg/mL
same,EC50,U-251,2 µg/mL
C=C1C(=O)[C@@H]2C3=C(CC[C@@H]4C(C)(C)CCC[C@@]34C)C[C@H]1[C@@H]2O,IC50,HL-60,1.28 µM
COc1ccc(C[C@@H]2OC(=O)c3c(OC)cc(OC)cc32)cc1,IC50,HL-60,0.92 µM
same,IC50,KB,0.96 µM
C=C1CCC[C@H]2C(=C)C(=O)O[C@@]23[C@@H](C)CC[C@@H]13,IC50,HL-60,5.3 µg/mL
Cc1cc([C@@]2(C)CCCC2(C)C)cc(O)c1O,IC50,[2],12.5 µg/mL
Oc1cc(CCc2ccccc2O)c2ccoc2c1,IC50,RAW264.7 [1],4.5 µM
CC1=CCc2c(O)cc(CCc3ccc(O)cc3)cc2OC1,inhibition,[3],4%
CC(C)(O)[C@H]1CC[C@@]2(C)C1CC[C@]1(C)C2CCC2[C@@]3(C)CCCC(C)(C)[C@@H]3[C@@H](O)C[C@]21C (stereo partly specified),IC50,P388,1.1 µg/mL
C=C1CC[C@H]2[C@@H]([C@H]3C(C)=COC(=O)[C@@H]13)C2(C)C,IC50,[2],12.5 µg/mL
Cc1ccc(O)c([C@@]2(C)CCCC2(C)C)c1,IC50,RAW264.7 [4],4.1 µM
C=C1C[C@@]23CC(OC(=O)/C=C/c4ccc(O)c(O)c4)[C@@H]1[C@@]2(C)CCCC3(C)C (stereo partly specified),IC50,RAW264.7 [1],6.3 µM
CC1=CCc2c(cc(CCc3ccccc3)c(C(=O)O)c2O)OC1,inhibition,[3],4%
same,IC50,Cyclooxygenase,39.7 µM
C=C1C(=O)O[C@@H]2/C=C(\C)CC/C=C(\C)CC(OC(C)=O)[C@@H]12 (stereo partly specified),IC50,HL-60,4.6 µM
C[C@H]1CC[C@@]2(C)[C@@H](CC[C@@H]3O[C@@]32C)[C@]1(C)CCc1ccoc1,IC50,RAW264.7 [1],4.5 µM
C=C1[C@@H]2CCC3[C@@](CC(=O)[C@@H]4C(C)(C)CCC[C@@]34CO[C@@H]3O[C@H](CO)[C@@H](O)[C@H](O)[C@H]3O)(C2)[C@@H]1O (stereo partly specified),IC50,[2],12.5 µg/mL
NC[C@H]1O[C@H](O[C@H]2[C@H](O)[C@@H](O[C@H]3O[C@H](CO)[C@@H](O)[C@H](N)[C@H]3O)[C@H](N)C[C@@H]2N)[C@H](O)[C@@H](O)[C@@H]1O [KANAMYCIN],diameter of the inhibition zone (DIZ),Staphylococcus aureus,23 mm
C=C1C(=O)[C@@]23CC[C@@H]4C(C)(C)CCC[C@@]4(C)C2=CC(=O)[C@@H]1C3,IC50,HL-60,0.59 µM
C=C1[C@@H]2CCC3[C@@](CC(=O)[C@@H]4C(C)(C)CCC[C@@]34CO[C@@H]3O[C@H](CO)[C@@H](O)[C@H](O)[C@H]3OC(C)=O)(C2)[C@@H]1O (stereo partly specified),IC50,[2],12.5 µg/mL
Oc1ccc2c(c1)CCc1ccc(cc1)Oc1cc(cc(-c3cc4cc(c3O)Oc3ccc(cc3)CCc3cc(O)ccc3-c3ccc(cc3O)CC4)c1O)CCc1ccc-2c(O)c1 [PUSILATIN B],IC50,DNA polymerase beta,13 µM
COc1cc(CCc2cccc(Oc3c(O)cccc3CCc3ccc(O)cc3)c2)cc(O)c1O,IC50,DNA polymerase beta,14.4 µM
same,IC50,Cyclooxygenase,45.2 µM
C=C1C(=O)[C@H]2C[C@@H]1CC1=C2[C@]2(C)CCCC(C)(C)[C@H]2CC1,IC50,HL-60,1.21 µM
C[C@H]1C(=O)C2=C[C@H]1CCC(=O)[C@]1(C)CCCC(C)(C)[C@H]1C[C@H]2O,GI50,P388,1.9 µg/mL and 5.9 µM
same,IC50,P388,0.8 µg/mL
C=C1C(=O)O[C@H]2/C=C(\C)CC/C=C(\C)CC[C@H]12,IC50,P388,0.7 µg/mL
Cc1cc([C@@]2(C)CCCC2(C)C)ccc1O,IC50,RAW264.7 [4],4.1 µM

# Source: ChEMBL document CHEMBL5260825, “Chemical Constituents of Bryophytes: Structures and Biological Activity” (J Nat Prod, 2018)
